Laboratory results from PMC2692627 (Molecular microbiology, 2009).

Legend:
[1] = test system: L. major FV1 promastigotes WT; experiment: Promastigote growth inhibition, WT line; format: cell-based; conditions: Leishmania major, read-out: EC50 growth
[2] = biological target: recombinant Leishmania DHCH1 (Leishmania major, UniProt Q4Q9F9); experiment: Inhibition of dehydrogenase; format: biochemical; conditions: for Inhibition of L. major DHCH1: tested at 50 μM, data not shown
[3] = test system: L. major FV1 promastigotes dhch1^−/pXNG4-DHCH1; experiment: microbe, parasite or virus in culture; format: cell-based, Leishmania major; conditions: for Resistance of DHCH1 or FTL overexpressors: DHCH1 or FTL overexpressors vs WT; for EC50: Leishmania major, read-out: EC50 growth
[4] = test system: L. major FV1 promastigotes dhch1^−/pXNG4-FTL; experiment: Promastigote growth inhibition, dhch1−/pXNG4-FTL line; format: cell-based; conditions: Leishmania major, read-out: EC50 growth
[5] = biological target: T1, recombinant Leishmania major DHCH1 (Leishmania major, UniProt Q4Q9F9); experiment: Kinetic constants of the dehydrogenase reaction of recombinant L. major DHCH1; format: biochemical; conditions: limit of detection 0.3 μmol min^−1 mg^−1; also with 5 mM (K+)PO4 and 5 mM MgCl2
T1 sequence (Q4Q9F9 1-298): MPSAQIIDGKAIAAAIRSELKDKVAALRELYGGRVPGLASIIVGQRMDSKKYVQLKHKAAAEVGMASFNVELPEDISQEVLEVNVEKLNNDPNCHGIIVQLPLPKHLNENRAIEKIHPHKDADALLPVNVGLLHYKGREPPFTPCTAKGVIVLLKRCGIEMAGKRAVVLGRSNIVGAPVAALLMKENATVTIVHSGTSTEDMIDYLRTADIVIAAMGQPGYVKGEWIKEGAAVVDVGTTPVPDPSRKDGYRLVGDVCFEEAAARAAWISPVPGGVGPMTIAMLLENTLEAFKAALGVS

FTL = conditions: 100 μM; ref Vickers et al., 2008; cited from earlier work
[6] = test system: L. major FV1 promastigotes WT/pXNG4-DHCH1; experiment: Promastigote growth inhibition, WT/pXNG4-DHCH1 line; format: cell-based; conditions: Leishmania major, read-out: EC50 growth
host cell (macrophages) = experiment: Host cell toxicity in the amastigote/macrophage test; format: cell-based; conditions: macrophage host cells; preliminary studies, unpublished data
Leishmania DHFR-TS = Leishmania DHFR-TS (Leishmania major, UniProt P07382); experiment: DHFR activity of the bifunctional L. major DHFR-TS; format: biochemical; conditions: 100 μM; data not shown
Chain of Leishmania DHFR-TS (P07382 whole entry): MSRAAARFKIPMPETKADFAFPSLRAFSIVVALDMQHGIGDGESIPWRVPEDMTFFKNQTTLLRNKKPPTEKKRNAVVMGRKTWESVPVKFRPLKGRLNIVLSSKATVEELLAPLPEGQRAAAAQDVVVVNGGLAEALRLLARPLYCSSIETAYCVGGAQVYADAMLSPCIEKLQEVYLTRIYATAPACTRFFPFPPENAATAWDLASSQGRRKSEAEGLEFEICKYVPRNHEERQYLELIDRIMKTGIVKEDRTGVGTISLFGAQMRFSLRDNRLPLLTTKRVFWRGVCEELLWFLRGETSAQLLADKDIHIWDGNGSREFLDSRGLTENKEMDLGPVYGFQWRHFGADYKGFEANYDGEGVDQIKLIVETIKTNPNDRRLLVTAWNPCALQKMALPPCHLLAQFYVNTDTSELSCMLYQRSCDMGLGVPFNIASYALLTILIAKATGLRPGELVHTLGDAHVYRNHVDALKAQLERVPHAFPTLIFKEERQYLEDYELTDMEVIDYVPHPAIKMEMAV

[7] = test system: L. major FV1 promastigotes WT/pXNG4-FTL; experiment: Promastigote growth inhibition, WT/pXNG4-FTL line; format: cell-based; conditions: Leishmania major, read-out: EC50 growth
human DHFR = conditions: read-out: Ki, human DHFR; ref Temple et al., 1982; cited from earlier work

Structure (SMILES) | EC50 [1] [nM] | Inhibition of L. major DHCH1 [2] | Resistance of DHCH1 or FTL overexpressors [3] | EC50 [3] [nM] | EC50 [4] [nM] | further results
Nc1nc(N)c2cc(Oc3ccc(Cl)c(Cl)c3)ccc2n1 [Compound 34, 2,4-diamino-6-(3,4-dichlorophenoxy)-quinazoline] | 680 ± 90 | not inhibited | did not show resistance | 760 ± 80 | 540 ± 60 | –
CC(C)c1nc2nc(N)nc(N)c2nc1C(C)C [Compound 25, 2,4-Diamino-6,7-diisopropylpteridine] | – | not inhibited | – | – | – | –
Nc1nc(N)c(CCCc2ccccc2)c(Cc2ccccc2)n1 [Compound 70, 2,4-diamino-6-benzyl-5-(3-phenylpropyl)-pyrimidine] | 440 ± 50 | not inhibited | did not show resistance | 400 ± 50 | 420 ± 40 | –
NC(=O)c1ccc[n+]([C@@H]2O[C@H](COP(=O)([O-])OP(=O)(O)OC[C@H]3O[C@@H](n4cnc5c(N)ncnc54)[C@H](O)[C@@H]3O)[C@@H](O)[C@H]2O)c1 [NAD^+] | – | – | – | – | – | Dehydrogenase activity with the coenzyme [5]: no activity detected
Nc1nc(O)c2c(n1)NC[C@@H]1CN(c3ccc(C(=O)N[C@@H](CCC(=O)O)C(=O)O)cc3)C(=O)N21 [5,10-CO-THF, (2S)-2-[[4-[(6aR)-3-amino-1,9-dioxo-5,6,6a,7-tetrahydro-4H-imidazo[3,4-f]pteridin-8-yl]benzoyl]amino]pentanedioic acid] | 1100 ± 40 | – | – | 4500 ± 500 | 3300 ± 300 | Inhibition of the activity of FTL (FTL): did not inhibit; EC50 [6]: 5100 ± 800 nM; Concentration above which host cell toxicity was seen (host cell (macrophages)): above 10 μM; Inhibition of the activity of Leishmania DHFR-TS (Leishmania DHFR-TS): did not inhibit; EC50 [7]: 3700 ± 500 nM; Ki [2]: 105 nM; Ki (human DHFR): > 100000 nM
CN(Cc1cnc2nc(N)nc(N)c2n1)c1ccc(C(=O)N[C@@H](CCC(=O)O)C(=O)O)cc1 [Methotrexate] | 36 ± 1 | not inhibited | did not show resistance | 41 ± 2 | 40 ± 2 | –
